In patent US8338565B2, “Macrocyclic compounds for inhibition of tumor necrosis factor alpha” (Ensemble Therapeutics Corporation, priority 2008, dated 2012):
Numbered stars: 1 amine (or outer) side, 2 acyl side, 3 side chain; on linkers, the order of the positions; unused ones are H or OH. Bridge positions count the residues as written; N and C are the ends. Square brackets hold non-standard residues; d marks the D form. Peptide text beside a SMILES is read from it. Bip = N[C@@H](Cc1ccc(-c2ccccc2)cc1)C(=O)O; Phe(4-NH2) = Nc1ccc(C[C@H](N)C(=O)O)cc1; d(hPhe) = N[C@H](CCc1ccccc1)C(=O)O; Suc = O=C(CCC(=O)[*:2])[*:1]

Test system: rat paw edema model
Experiment: Rat paw edema model (carrageenan), anti-inflammatory activity
Format: in vivo, Sprague-Dawley (SD) rats

O=C1CCC(=O)N[C@H](CCc2ccccc2)C(=O)N[C@@H](Cc2ccc(-c3ccccc3)cc2)C(=O)N[C@H](Cc2ccccc2)C(=O)N[C@H](C(=O)N[C@@H](Cc2ccccc2)C(=O)O)Cc2ccc(cc2)N1 [Compound 202] ([d(hPhe)][Bip][dF][Phe(4-NH2)]F-OH; linker N-4 via Suc)
Change in Paw Volume (Table 3, 0.3 mg/kg IV, 2 h post-carrageenan): 0.42 ± 0.20 mL
Change in Paw Volume (Table 3, 0.3 mg/kg IV, 4 h post-carrageenan): 1.01 ± 0.31 mL
Change in Paw Volume (Table 3, 0.3 mg/kg IV, 6 h post-carrageenan): 1.16 ± 0.20 mL
Change in Paw Volume (Table 9, 0.05 mg/kg IV, 2 h post-carrageenan): 1.20 ± 0.09 mL
Change in Paw Volume (Table 9, 0.05 mg/kg IV, 4 h post-carrageenan): 1.56 ± 0.22 mL
Change in Paw Volume (Table 9, 0.05 mg/kg IV, 6 h post-carrageenan): 1.67 ± 0.18 mL
Change in Paw Volume (Table 9, 0.1 mg/kg IV, 2 h post-carrageenan): 0.99 ± 0.15 mL
Change in Paw Volume (Table 9, 0.1 mg/kg IV, 4 h post-carrageenan): 1.41 ± 0.26 mL
Change in Paw Volume (Table 9, 0.1 mg/kg IV, 6 h post-carrageenan): 1.62 ± 0.19 mL
Change in Paw Volume (Table 9, 0.3 mg/kg IV, 2 h post-carrageenan): 0.70 ± 0.13 mL
Change in Paw Volume (Table 9, 0.3 mg/kg IV, 4 h post-carrageenan): 1.09 ± 0.06 mL
Change in Paw Volume (Table 9, 0.3 mg/kg IV, 6 h post-carrageenan): 1.15 ± 0.12 mL
Change in Paw Volume (Table 9, 1.0 mg/kg IV, 2 h post-carrageenan): 0.60 ± 0.04 mL
Change in Paw Volume (Table 9, 1.0 mg/kg IV, 4 h post-carrageenan): 0.98 ± 0.08 mL
Change in Paw Volume (Table 9, 1.0 mg/kg IV, 6 h post-carrageenan): 1.14 ± 0.05 mL
Change in Paw Volume (Table 9, 10 mg/kg PO (suspension in Vehicle A), 2 h post-carrageenan): 1.12 ± 0.15 mL
Change in Paw Volume (Table 9, 10 mg/kg PO (suspension in Vehicle A), 4 h post-carrageenan): 1.35 ± 0.27 mL
Change in Paw Volume (Table 9, 10 mg/kg PO (suspension in Vehicle A), 6 h post-carrageenan): 1.42 ± 0.22 mL
Change in Paw Volume (Table 10, 0.3 mg/kg PO, 2 h post-carrageenan): 1.49 ± 0.14 mL
Change in Paw Volume (Table 10, 0.3 mg/kg PO, 4 h post-carrageenan): 1.59 ± 0013 mL
Change in Paw Volume (Table 10, 0.3 mg/kg PO, 6 h post-carrageenan): 1.65 ± 0.10 mL
Change in Paw Volume (Table 10, 1.0 mg/kg PO, 2 h post-carrageenan): 1.43 ± 0.18 mL
Change in Paw Volume (Table 10, 1.0 mg/kg PO, 4 h post-carrageenan): 1.45 ± 0.16 mL
Change in Paw Volume (Table 10, 1.0 mg/kg PO, 6 h post-carrageenan): 1.62 ± 0.14 mL
Change in Paw Volume (Table 10, 3.0 mg/kg PO, 4 h post-carrageenan): 1.42 ± 0.09 mL
Change in Paw Volume (Table 10, 3.0 mg/kg PO, 6 h post-carrageenan): 1.50 ± 0.09 mL
Change in Paw Volume (Table 10, 10 mg/kg PO, 2 h post-carrageenan): 1.17 ± 0.17 mL
Change in Paw Volume (Table 10, 10 mg/kg PO, 4 h post-carrageenan): 1.29 ± 0.06 mL
Change in Paw Volume (Table 10, 10 mg/kg PO, 6 h post-carrageenan): 1.51 ± 0.06 mL
